# Source: patent US20170273922A1, “UREA AND BIS-UREA BASED COMPOUNDS AND ANALOGUES THEREOF USEFUL IN THE TREATMENT OF ANDROGEN RECEPTOR MEDIATED DISEASES OR DISORDERS” (THE ROYAL INSTITUTION FOR THE ADVACEMENT OF LEARNING/MCGILL …, priority 2014, published 2017)
# What was measured:
# [1] = system: H1975 cells; test: MTT assay (cytotoxicity), H1975 cells; assay type: cell-based; conditions: 72 h treatment, Table 6.1
# Method: (§1) MTT assays: LNCaP, 22Rv1, Du145, H1975, A549, MB231 and MCF-7 cells are maintained in RPMI 1640 supplemented with 10% FBS. Cells were seeded at a density of 6-7×10^3 cells per well in 96-well plates. After overnight incubation, cells in fresh RPMI 1640 supplemented with 10% FBS were exposed to DMSO vehicle control or test compounds at designated concentrations for 72 h. Viable cells were evaluated by MTT assays. Experiments were performed in triplicate and repeated at least twice.
# [2] = system: DU145 cells; test: MTT assay (cytotoxicity), DU145 cells; assay type: cell-based; conditions: 72 h
# Method: as §1
# [3] = system: LNCaP cells; test: MTT assay (cytotoxicity), LNCaP cells; assay type: cell-based
# Method in brief: (§2)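 Following overnight attachment at 6-7×10^3 cells per well, cultures receive compound for 72 h in serum-containing (10% FBS) RPMI 1640. MTT then quantifies surviving cells, with each experiment done in triplicate and repeated at least twice.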
# [4] = biological target: T1, full-length IRF3 (Homo sapiens, UniProt Q14653); test: Full-length IRF3 ISRE-luc reporter assay; assay type: cell-based; conditions: PC3 cells, 24 h
# T1 construct: co-transfected with full-length IRF3 or IRF3DBD-AR(1-547) expressing plasmids; expressed in transfected cells
# T1 sequence (Q14653 1-427): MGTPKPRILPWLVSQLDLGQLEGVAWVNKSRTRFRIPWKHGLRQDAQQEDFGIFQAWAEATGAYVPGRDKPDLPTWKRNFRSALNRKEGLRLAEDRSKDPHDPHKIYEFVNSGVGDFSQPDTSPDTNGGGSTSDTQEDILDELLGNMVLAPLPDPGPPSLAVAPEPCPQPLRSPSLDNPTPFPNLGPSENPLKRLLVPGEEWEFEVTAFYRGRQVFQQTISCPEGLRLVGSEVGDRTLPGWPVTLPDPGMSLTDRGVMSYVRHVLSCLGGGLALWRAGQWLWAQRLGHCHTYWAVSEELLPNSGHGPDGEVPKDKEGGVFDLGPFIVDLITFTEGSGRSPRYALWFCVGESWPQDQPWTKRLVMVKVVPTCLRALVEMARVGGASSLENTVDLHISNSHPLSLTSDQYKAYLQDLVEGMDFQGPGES
# Description: For all of the others, cells were co-transfected with full-length IRF3 or IRF3DBD-AR(1-547) expressing plasmids and with the ISRE-luc reporter and pRL-TK plasmids. […] As IRF3DBD-AR(1-547) contains the DBD of IRF3, ISRE-luc reporter instead of the PSA-luc reporter was used in our assays.
# HEK293 cells were co-transfected with IRF3DBD(1-133) or IRF3DBD-AR(1-547) or IRF3DBD-AR(181-547) or full-length IRF3 expressing plasmids and with the ISRE-luc reporter and the Renilla luciferase pRL-TK plasmids.
# Here, IRF3-AR(1-547) is the fusion of IRF3 DBD with the AR NTD (1-547). […] The plasmids expressing IRF3-AR(1-547) (A) or wild-type IRF3 (B) or IRF3 DBD (for NT) as well as ISRE-luc and pRL-TK were transiently transfected into PC3 cells. […] Bic, bicalutamide; EPI, EPI-001.
# [5] = system: liver hepatocellular carcinoma; test: MTT assay (72 h), liver hepatocellular carcinoma cell line of Table 6.1; assay type: cell-based; conditions: HepG2 cells, 72 h treatment, read-out: Cytotoxicity (IC50, μM) HepG2
# [6] = system: VP16-AR(507-919); test: VP16-AR(507-919) (NTD-deleted) PSA-luc reporter assay; conditions: 10 nM DHT, 24 h; PC3 or HEK293 cells
# [7] = system: MB231 cells; test: MTT assay (cytotoxicity), MB231 cells; assay type: cell-based; conditions: 72 h treatment, Table 6.1
# Method: as §1
# [8] = system: MCF-7 cells; test: MTT assay (cytotoxicity), MCF-7 cells; assay type: cell-based; conditions: 72 h treatment, Table 6.1
# Method: as §1
# [9] = biological target: T2, IRF3DBD-AR(1-547) (Homo sapiens, UniProt P10275); test: IRF3DBD-AR(1-547) ISRE-luc reporter assay; assay type: cell-based; conditions: PC3 cells, 24 h
# T2 construct: IRF3-AR(1-547) is the fusion of IRF3 DBD with the AR NTD (1-547); expressed in transfected cells
# T2 sequence (P10275 1-547): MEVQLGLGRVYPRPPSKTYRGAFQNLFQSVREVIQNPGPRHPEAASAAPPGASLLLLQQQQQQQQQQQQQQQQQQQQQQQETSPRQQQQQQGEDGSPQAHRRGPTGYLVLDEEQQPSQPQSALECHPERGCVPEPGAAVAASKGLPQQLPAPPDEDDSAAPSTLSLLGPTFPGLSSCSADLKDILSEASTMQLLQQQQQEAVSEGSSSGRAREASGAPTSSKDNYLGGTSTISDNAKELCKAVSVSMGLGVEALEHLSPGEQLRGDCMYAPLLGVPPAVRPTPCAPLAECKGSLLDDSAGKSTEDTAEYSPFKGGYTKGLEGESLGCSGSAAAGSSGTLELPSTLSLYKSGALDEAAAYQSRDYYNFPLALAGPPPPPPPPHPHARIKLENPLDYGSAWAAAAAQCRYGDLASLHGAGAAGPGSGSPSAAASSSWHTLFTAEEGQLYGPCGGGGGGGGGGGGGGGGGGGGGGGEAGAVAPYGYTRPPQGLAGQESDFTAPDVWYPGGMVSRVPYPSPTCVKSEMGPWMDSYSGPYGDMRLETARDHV
# [10] = system: A549 cells; test: MTT assay (cytotoxicity), A549 cells; assay type: cell-based; conditions: 72 h treatment, Table 6.1
# Method: as §1
# [11] = system: 22Rv1 cells; test: MTT assay (cytotoxicity), 22Rv1 cells; assay type: cell-based
# Method in brief: as §2
# [12] = MTT assay (cytotoxicity), H1975 cells; assay type: cell-based; conditions: human, 72 h treatment, Table 6.1
# Method: as §1
# [13] = MTT assay (cytotoxicity), DU145 cells; assay type: cell-based; conditions: human, DU145 cells, Table 2.4
# Method: as §1
# [14] = MTT assay (cytotoxicity), LNCaP cells; assay type: cell-based; conditions: human, LNCaP cells
# Method in brief: as §2
# [15] = MTT assay (72 h), liver hepatocellular carcinoma cell line of Table 6.1; assay type: cell-based; conditions: human, HepG2 cells (liver hepatocellular carcinoma), 72 h treatment, read-out: Cytotoxicity (IC50, μM) HepG2
# [16] = MTT assay (cytotoxicity), MB231 cells; assay type: cell-based; conditions: human, 72 h treatment, Table 6.1
# Method: as §1
# [17] = MTT assay (cytotoxicity), MCF-7 cells; assay type: cell-based; conditions: human, 72 h treatment, Table 6.1
# Method: as §1
# [18] = MTT assay (cytotoxicity), A549 cells; assay type: cell-based; conditions: human, 72 h treatment, Table 6.1
# Method: as §1
# [19] = MTT assay (cytotoxicity), 22Rv1 cells; assay type: cell-based; conditions: human, 22Rv1 cells
# Method in brief: as §2
# [20] = biological target: T3, endogenous AR T877A mutant in LNCaP cells (Homo sapiens, UniProt P10275, T878A); test: PSA-luc reporter assay in LNCaP cells (endogenous AR T877A mutant); assay type: cell-based; conditions: PSA-luc, 24 h
# T3 construct: LNCaP cells, which express endogenous AR T877A mutant; endogenous in cells; host or cells: LNCaP
# T3 sequence (P10275 1-920 T878A): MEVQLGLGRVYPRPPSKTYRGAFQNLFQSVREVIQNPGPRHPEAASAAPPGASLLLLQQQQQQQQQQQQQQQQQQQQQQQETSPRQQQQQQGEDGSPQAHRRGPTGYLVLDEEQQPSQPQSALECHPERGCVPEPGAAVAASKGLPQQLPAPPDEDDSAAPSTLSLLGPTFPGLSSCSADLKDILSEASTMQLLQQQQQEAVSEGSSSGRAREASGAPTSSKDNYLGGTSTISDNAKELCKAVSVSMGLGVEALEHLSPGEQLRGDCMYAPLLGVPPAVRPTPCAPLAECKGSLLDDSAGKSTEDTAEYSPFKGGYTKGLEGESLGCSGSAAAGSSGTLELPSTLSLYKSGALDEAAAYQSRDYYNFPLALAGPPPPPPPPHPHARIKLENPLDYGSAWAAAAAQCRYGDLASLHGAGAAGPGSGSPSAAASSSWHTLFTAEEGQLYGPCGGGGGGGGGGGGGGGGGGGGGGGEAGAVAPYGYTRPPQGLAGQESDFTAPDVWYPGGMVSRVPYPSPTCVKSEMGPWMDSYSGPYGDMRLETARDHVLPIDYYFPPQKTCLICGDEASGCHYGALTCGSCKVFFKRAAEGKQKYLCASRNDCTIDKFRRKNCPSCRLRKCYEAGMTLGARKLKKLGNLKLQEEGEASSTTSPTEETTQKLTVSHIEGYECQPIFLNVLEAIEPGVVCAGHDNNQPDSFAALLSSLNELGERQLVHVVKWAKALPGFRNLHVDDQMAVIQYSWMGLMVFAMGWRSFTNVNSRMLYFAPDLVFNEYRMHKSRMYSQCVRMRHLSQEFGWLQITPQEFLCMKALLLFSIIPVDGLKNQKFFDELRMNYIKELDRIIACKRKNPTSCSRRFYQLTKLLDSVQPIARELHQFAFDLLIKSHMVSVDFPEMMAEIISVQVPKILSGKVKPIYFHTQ
# Method: Experiments were in duplicate and repeated three times. […] LNCaP cells in whole medium were exposed to DMSO vehicle control or compounds for 24 h.
# [21] = biological target: T4, T877A mutant of full-length AR (Homo sapiens, UniProt P10275, T878A); test: AR T877A mutant PSA-luc reporter assay in PC3 cells; assay type: cell-based; conditions: absence of DHT, 24 h
# T4 sequence (P10275 1-920 T878A): T3 sequence (P10275 1-920 T878A)
# Description: ENZ, enzalutamide; Bic, bicalutamide; OHF, hydroxyflutamide.
# [22] = LNCaP cells, 72 h treatment, Table 6.1
# [23] = 22Rv1 cells, 72 h treatment, Table 6.1
smiles,measurement,setting,value
N#Cc1ccc(NC(=O)N/C=C/c2cccc(C(F)(F)F)c2)cc1C(F)(F)F [Compound 410],IC50,[1],2.5 µM
same,IC50,[2]; Table 2.2,10.4 µM
same,IC50,"[3]; 72 h, Table 2.2",4.4 µM
same,IC50,[3]; [22],1.8 µM
same,activity against wild-type IRF3 (ISRE-luc),[4],inactive
same,IC50,[5],0.92 µM
same,inhibition of DHT-induced activation of VP16-AR(507-919) (PSA-luc),[6],inactive
same,IC50,[7],4 µM
same,IC50,[8],2.6 µM
same,inhibition of IRF3-AR(1-547)-dependent ISRE-luc reporter activity,[9],potently inhibit
same,IC50,[10],2.7 µM
same,IC50,[11]; [23],2.5 µM
N#Cc1ccc(NC(=O)N/C=C/c2cccs2)cc1C(F)(F)F [Compound 428],IC50 at 72 h,[12],7.7 µM
same,IC50 at 72 h,[13],5.1 µM
same,IC50 at 72 h,"[14]; 72 h, Table 2.4",2.1 µM
same,activity against wild-type IRF3 (ISRE-luc),[4],inactive
same,IC50 at 72 h,[15],2.4 µM
same,inhibition of DHT-induced activation of VP16-AR(507-919) (PSA-luc),[6],inactive
same,IC50 at 72 h,[16],7.6 µM
same,IC50 at 72 h,[17],5.2 µM
same,inhibition of IRF3-AR(1-547)-dependent ISRE-luc reporter activity,[9],potently inhibit
same,IC50 at 72 h,[18],4.7 µM
same,IC50 at 72 h,"[19]; 72 h, Table 2.4",3.7 µM
O=C(N/C=C/c1cccc(C(F)(F)F)c1)NCc1ccc([N+](=O)[O-])cc1 [Compound 447],IC50 at 72 h,[13],8 µM
same,IC50 at 72 h,"[14]; 72 h, Table 2.4",7.5 µM
same,effect of increasing DHT from 1 nM to 10 nM on inhibitory activity in LNCaP cells,[20],not competed out
same,IC50 at 72 h,"[19]; 72 h, Table 2.4",7.5 µM
O=C(N/C=C/c1cc(C(F)(F)F)cc(C(F)(F)F)c1)Nc1cnccn1 [Compound 528],IC50,[2]; Table 2.1,< 1 µM
same,IC50,"[3]; 72 h, Table 2.1",0.12 µM
same,IC50,[3]; [22],0.12 µM
same,activity against wild-type IRF3 (ISRE-luc),[4],inactive
same,inhibition of IRF3-AR(1-547)-dependent ISRE-luc reporter activity,[9],potently inhibit
same,IC50,[11]; [23],< 1 µM
same,IC50,"[11]; 72 h, Table 2.1",< 1 µM
O=C(N/C=C/c1cccc(C(F)(F)F)c1)Nc1cnccn1 [Compound 558],IC50,[1],2.4 µM
same,IC50,"[3]; 72 h, Table 2.1",0.06 µM
same,IC50,[3]; [22],0.06 µM
same,IC50,[5],0.14 µM
same,IC50,[7],0.3 µM
same,IC50,[8],< 0.5 µM
same,IC50,[10],0.09 µM
same,IC50,[11]; [23],0.1 µM
same,IC50,"[11]; 72 h, Table 2.1",0.1 µM
O=C(Nc1cccc(C(F)(F)F)c1)Nc1ccc(C(=O)Nc2ccccc2F)c(C(F)(F)F)c1 [Compound 822],IC50 at 72 h,[12],6.3 µM
same,IC50 at 72 h,"[14]; 72 h treatment, Table 6.1",3 µM
same,IC50 at 72 h,[15],3.2 µM
same,IC50 at 72 h,[16],8.1 µM
same,IC50 at 72 h,[17],4.5 µM
same,IC50 at 72 h,[18],6 µM
same,IC50 at 72 h,"[19]; 72 h treatment, Table 6.1",4 µM
O=C(Nc1cccc(C(F)(F)F)c1)Nc1ccc(F)cc1NC(=O)c1cc(Cl)ccc1F [Compound 968],activity against wild-type IRF3 (ISRE-luc),[4],inactive
same,inhibition of IRF3-AR(1-547)-dependent ISRE-luc reporter activity,[9],potently inhibit
O=C(Nc1cccc(Br)c1)Nc1cc(NC(=O)Nc2cccc(C(F)(F)F)c2)cc(C(F)(F)F)c1 [Compound 973],activity against wild-type IRF3 (ISRE-luc),[4],inactive
same,inhibition of IRF3-AR(1-547)-dependent ISRE-luc reporter activity,[9],potently inhibit
"CC(C)(O)C(=O)Nc1ccc([N+](=O)[O-])c(C(F)(F)F)c1 [hydroxyflutamide, reference compound]",agonism of AR T877A mutant (PSA-luc),[21],activated
